Measured values published in US8592581B2, “Trisubstituted purine derivatives” (Cyclacel Limited, priority 2007, dated 2013).
pIC50: −log10 of the molar value. Read-outs that look alike come from different tables or passages of the source.

Experiments:
[1] = target: CDK2/cyclin E (Homo sapiens (Human), UniProt P24941); assay: In-vitro recombinant kinase assay CDK2/cyclin E; format: biochemical
Description: (§1) To evaluate the in-vitro kinase potency of the compounds, they were screened against CDK 2 and CDK9. Kinase assays were performed in 96-well plates using recombinant CDK/cyclins generated at Cyclacel. Ltd Dundee, UK. CDK2 and CDK9 assays were performed in a total volume of 25 μl in assay buffer (25 mM b-glycerophosphate, 20 mM MOPS, 5 mM EGTA, 1 mM DTT and 1 mM NaVO3, pH 7.4), into which were added 2-4 μg of active enzyme with appropriate substrates (purified histone H1 for CDK2/cyclin E, and CDK2/cyclin A, biotinyl-Ahx-(YSPTSPS)4 for CDK9/cyclin T1). […] CDK2 reactions were stopped by addition of 25 μl of 75 mM phosphoric acid, followed by filtration through P81 filterplates (Whatman Polyfiltronics, Kent, UK). For CDK9, the reaction was stopped by addition of 25 μl of 75 mM phosphoric acid, then 5 μl of 10 mg/ml avidin was added to each well and further incubated for 2 min followed by filtration as per CDK2 assay. After washing 3 times with 75 mM orthophosphoric acid, plates were dried, scintillant added and incorporated radioactivity measured in a scintillation counter (TopCount, Packard Instruments, Pangbourne, Berks, UK). Compounds for kinase assay were made up as 10 mM stocks in DMSO and diluted into 10% DMSO in assay buffer.
as §1

[2] = target: CDK2/cyclin A (Homo sapiens (Human), UniProt P24941); assay: In-vitro recombinant kinase assay CDK2/cyclin A; format: biochemical
Description: as §1, §1

[3] = target: CDK9/cyclin T1 (Homo sapiens (Human), UniProt P50750); assay: In-vitro recombinant kinase assay CDK9/cyclin T1; format: biochemical; settings: Table 2; average of duplicate points
Description: as §1, §1

[4] = test system: H460 non-small cell lung cancer (NSCLC) cell line; assay: Alamar blue cytotoxicity assay in H460 NSCLC tumour cell line; format: cell-based; settings: for Fold increase in potency: H460 cellular IC50 compared with seliciclib; for pIC50: Homo sapiens, NCI-H460, 72 h, H460 cells, 72 hours, average of three independent experiments
Description: In order to determine the cellular potency of the compounds, the cytotoxicity of each compound was determined against the H460 non-small cell lung cancer (NSCLC) cell line. Standard cytotoxicity methods were performed as follows: H460 cells were seeded in 96-well plates appropriately for their doubling time (3000 cells per well) in RPMI media containing 10% FCS and incubated overnight at 37° C., 5% CO2. The media was removed and 100 μl fresh media containing increasing concentrations of appropriate compound was added and the cells incubated for 72 hours at 37° C., 5% CO2. A 10% stock of alamar blue (Roche, Lewes, United Kingdom) was prepared in medium and 100 μl added to the cells which were incubated for 2 hours.

[5] = target: CYP1A (Homo sapiens, UniProt P05177); assay: CYP1A inhibition, human liver microsomes, ethoxyresorufin; format: in vitro ADME
Description: (§2) Six test compound concentrations (0.05, 0.25, 0.5, 2.5, 5, 25 μM in DMSO; final DMSO concentration=0.35%) were incubated with human liver microsomes (0.25 mg/mL) and NADPH (1 mM) in the presence of the probe substrate ethoxyresorufin (0.5 μM) for 5 min at 37° C. The selective CYP1A inhibitor, alpha-naphthoflavone, was screened alongside the test compounds as a positive control.
(§3) For the CYP1A incubations, the reactions were terminated by the addition of methanol, and the formation of the metabolite, resorufin, was monitored by fluorescence (excitation wavelength=535 nm, emission wavelength=595 nm). For the CYP2C9, CYP2C19, CYP2D6, and CYP3A4 incubations, the reactions were terminated by the addition of methanol containing internal standard. The samples were then centrifuged, and the supernatants were combined, for the simultaneous analysis of 4-hydroxytolbutamide, 4-hydroxymephenyloin, dextrorphan, and 1-hydroxymidazolam plus internal standard by LC-MS/MS using generic LC-MS/MS conditions. Formic acid in deionised water (final concentration=0.1%) was added to the final sample prior to analysis.

[6] = target: T1, CYP2C19 (Homo sapiens (Human), UniProt P33261); assay: CYP2C19 inhibition, human liver microsomes, mephenyloin; format: in vitro ADME
Description: (§4) Six test compound concentrations (0.05, 0.25, 0.5, 2.5, 5, 25 μM in DMSO; final DMSO concentration=0.25%) were incubated with human liver microsomes (0.5 mg/mL) and NADPH (1 mM) in the presence of the probe substrate mephenyloin (25 μM) for 60 min at 37° C. The selective CYP2C19 inhibitor, tranylcypromine, was screened alongside the test compounds as a positive control.
as §3

[7] = target: T2, CYP2C9 (Homo sapiens (Human), UniProt P11712); assay: CYP2C9 inhibition, human liver microsomes, tolbutamide; format: in vitro ADME
Description: as §4, with “(1” for “(0.5”, “tolbutamide (120” for “mephenyloin (25”, “CYP2C9” for “CYP2C19”, “sulphaphenazole,” for “tranylcypromine,”
as §3

[8] = target: T3, CYP2D6 (Homo sapiens (Human), UniProt P10635); assay: CYP2D6 inhibition, human liver microsomes, dextromethorphan; format: in vitro ADME
Description: as §4, with “dextromethorphan (5” for “mephenyloin (25”, “30” for “60”, “CYP2D6” for “CYP2C19”, “quinidine,” for “tranylcypromine,”
as §3

[9] = target: T4, CYP3A4 (Homo sapiens (Human), UniProt P08684); assay: CYP3A4 inhibition, human liver microsomes, midazolam; format: in vitro ADME; settings: human liver microsomes
Description: as §2, with “concentration 0.26%)” for “concentration=0.35%)”, “midazolam (2.5” for “ethoxyresorufin (0.5”, “CYP3A4” for “CYP1A”, “ketoconazole,” for “alpha-naphthoflavone,”
as §3

[10] = target: T1, CYP2C19; assay: Cytochrome P450 substrate identification (Bactosomes) CYP2C19; format: in vitro ADME; settings: pH 7.4, 5 μM test compound, up to 45 min, read-out: half life in the presence of CYP2C19
Description: (§5) cDNA expressed human CYP450 enzyme preparations co-expressed with human NADPH cytochrome P450 reductase (Bactosomes™) were supplied by Cypex Ltd. Bactosomes™ (final P450 concentration CYP1A2 100 pmol/mL, CYP2C8 50 pmol/mL, CYP2C9 25 pmol/mL, CYP2C19 100 pmol/mL, CYP2D6 50 pmol/mL and CYP3A4 25 pmol/mL), 0.1M phosphate buffer pH7.4 and test compound (final substrate concentration=5 μM; final DMSO concentration=0.25%) were pre-incubated at 37° C. prior to the addition of NADPH (final concentration=1 mM) to initiate the reaction. Incubations were also performed using control bactosomes (no P450 enzymes present) to reveal any non-enzymatic degradation. The final incubation volume was 25 μL. Compounds known to be metabolised specifically by each CYP450 isoform were used as control compounds.
(§6) Each compound was incubated singly for 0, 5, 15, 30 and 45 min with each CYP isoform. The reactions were stopped by the addition of 50 μL methanol containing internal standard at the appropriate time points. The incubation plates were centrifuged at 2500 rpm for 20 min at 4° C. to precipitate the protein. Following protein precipitation, the sample supernatants were combined in cassettes of up to four compounds and analysed using generic LC-MS/MS conditions.
(§7) The In peak area ratio (which has been corrected for any loss in the incubations with the control bactosomes) was plotted against time and the gradient of the line determined.
(§8) The elimination rate constant (k)=(−gradient)

[11] = target: CYP2C8 (Homo sapiens (Human), UniProt P10632); assay: Cytochrome P450 substrate identification (Bactosomes) CYP2C8; format: in vitro ADME; settings: pH 7.4, 5 μM test compound, up to 45 min, read-out: half life in the presence of CYP2C8
Description: as §5, §6, §7, §8

[12] = target: T2, CYP2C9; assay: Cytochrome P450 substrate identification (Bactosomes) CYP2C9; format: in vitro ADME; settings: pH 7.4, 5 μM test compound, up to 45 min, read-out: half life in the presence of CYP2C9
Description: as §5, §6, §7, §8

[13] = target: T3, CYP2D6; assay: Cytochrome P450 substrate identification (Bactosomes) CYP2D6; format: in vitro ADME; settings: pH 7.4, 5 μM test compound, up to 45 min, read-out: half life in the presence of CYP2D6
Description: as §5, §6, §7, §8

[14] = target: T4, CYP3A4; assay: Cytochrome P450 substrate identification (Bactosomes) CYP3A4; format: in vitro ADME; settings: human, pH 7.4; Bactosomes, 5 μM test compound, up to 45 min; read-out: half life in the presence of CYP3A4
Description: as §5, §6, §7, §8

[15] = target: CDK1B (Homo sapiens (Human), UniProt P06493); assay: In-vitro kinase assay screen CDK1B (Table 4); format: biochemical
[16] = Table 2, average of duplicate points, read-out: CDK2/Cyclin E Average IC50
[17] = Table 2, average of duplicate points, read-out: CDK2/Cyclin A Average IC50
[18] = Table 4, Run 1, read-out: CDK2E Run 1
[19] = Table 4, Run 2, read-out: CDK2E Run 2
[20] = Table 4, mean of two runs, read-out: CDK2E Mean
[21] = Table 4, Run 1, read-out: CDK2A Run 1
[22] = Table 4, Run 2, read-out: CDK2A Run 2
[23] = Table 4, Run 1, read-out: CDK1B Run 1
[24] = Table 4, Run 2, read-out: CDK1B Run 2
[25] = Table 4, mean of two runs, read-out: CDK1B Mean

CDK1B, sequence (P06493 whole entry): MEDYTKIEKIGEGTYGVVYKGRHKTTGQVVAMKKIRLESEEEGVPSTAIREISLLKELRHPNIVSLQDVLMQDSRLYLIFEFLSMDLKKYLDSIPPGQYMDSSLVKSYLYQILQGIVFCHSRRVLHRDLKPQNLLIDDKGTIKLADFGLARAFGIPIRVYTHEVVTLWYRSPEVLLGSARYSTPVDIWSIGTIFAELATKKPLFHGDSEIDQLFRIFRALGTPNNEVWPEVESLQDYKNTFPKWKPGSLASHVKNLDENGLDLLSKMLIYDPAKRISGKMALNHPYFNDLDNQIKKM
CDK1B, sequence (P14635 whole entry partner): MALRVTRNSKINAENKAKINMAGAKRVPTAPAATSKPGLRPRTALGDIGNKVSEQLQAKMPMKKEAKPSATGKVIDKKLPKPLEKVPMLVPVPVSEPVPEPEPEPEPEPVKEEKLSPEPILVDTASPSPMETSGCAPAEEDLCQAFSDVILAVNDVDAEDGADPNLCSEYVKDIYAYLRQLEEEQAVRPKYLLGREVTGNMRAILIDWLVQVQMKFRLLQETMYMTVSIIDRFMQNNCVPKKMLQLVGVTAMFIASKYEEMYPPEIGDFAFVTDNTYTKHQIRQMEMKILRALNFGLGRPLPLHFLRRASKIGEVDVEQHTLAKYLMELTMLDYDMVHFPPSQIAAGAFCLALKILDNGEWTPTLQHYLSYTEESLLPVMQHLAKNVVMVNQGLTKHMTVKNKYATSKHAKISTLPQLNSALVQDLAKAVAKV
T1 sequence (P33261 whole entry): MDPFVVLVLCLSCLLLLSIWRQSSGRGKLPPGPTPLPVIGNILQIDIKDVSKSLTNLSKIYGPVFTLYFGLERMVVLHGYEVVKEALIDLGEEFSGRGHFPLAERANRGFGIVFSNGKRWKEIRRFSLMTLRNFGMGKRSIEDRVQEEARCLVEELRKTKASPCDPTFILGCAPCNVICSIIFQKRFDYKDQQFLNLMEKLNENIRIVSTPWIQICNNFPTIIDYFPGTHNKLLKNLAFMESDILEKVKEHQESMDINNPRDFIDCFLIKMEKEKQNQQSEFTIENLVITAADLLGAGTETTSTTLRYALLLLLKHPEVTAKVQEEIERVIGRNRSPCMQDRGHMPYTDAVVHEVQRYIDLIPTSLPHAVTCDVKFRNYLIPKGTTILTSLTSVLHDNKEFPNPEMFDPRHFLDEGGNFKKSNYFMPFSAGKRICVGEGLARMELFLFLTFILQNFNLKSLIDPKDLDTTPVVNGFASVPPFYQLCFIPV
T2 sequence (P11712 whole entry): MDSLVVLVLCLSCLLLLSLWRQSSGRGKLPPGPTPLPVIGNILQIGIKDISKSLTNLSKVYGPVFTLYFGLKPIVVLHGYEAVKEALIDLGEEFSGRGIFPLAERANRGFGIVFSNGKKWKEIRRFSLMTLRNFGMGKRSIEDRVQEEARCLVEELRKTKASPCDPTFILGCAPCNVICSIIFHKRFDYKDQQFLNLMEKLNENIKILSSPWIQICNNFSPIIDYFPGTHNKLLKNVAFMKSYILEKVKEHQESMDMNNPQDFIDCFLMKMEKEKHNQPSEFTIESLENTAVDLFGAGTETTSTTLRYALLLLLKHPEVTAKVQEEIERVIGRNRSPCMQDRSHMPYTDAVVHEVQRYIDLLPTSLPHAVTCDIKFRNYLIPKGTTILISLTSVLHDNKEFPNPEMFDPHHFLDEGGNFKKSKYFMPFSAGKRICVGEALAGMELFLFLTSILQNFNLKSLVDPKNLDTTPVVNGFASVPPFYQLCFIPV
CDK9/cyclin T1, sequence (P50750 whole entry, species assumed): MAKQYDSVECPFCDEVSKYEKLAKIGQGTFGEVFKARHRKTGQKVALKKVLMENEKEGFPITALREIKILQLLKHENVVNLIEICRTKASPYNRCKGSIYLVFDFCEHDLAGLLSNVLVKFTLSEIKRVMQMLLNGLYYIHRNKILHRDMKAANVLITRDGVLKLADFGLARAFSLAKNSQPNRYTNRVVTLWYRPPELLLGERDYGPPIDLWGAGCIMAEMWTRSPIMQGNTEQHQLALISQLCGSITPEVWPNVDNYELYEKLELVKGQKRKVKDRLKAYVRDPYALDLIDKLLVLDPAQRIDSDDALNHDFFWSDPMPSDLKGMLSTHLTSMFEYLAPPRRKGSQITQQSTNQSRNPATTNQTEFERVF
CDK9/cyclin T1, sequence (O60563 whole entry partner, species assumed): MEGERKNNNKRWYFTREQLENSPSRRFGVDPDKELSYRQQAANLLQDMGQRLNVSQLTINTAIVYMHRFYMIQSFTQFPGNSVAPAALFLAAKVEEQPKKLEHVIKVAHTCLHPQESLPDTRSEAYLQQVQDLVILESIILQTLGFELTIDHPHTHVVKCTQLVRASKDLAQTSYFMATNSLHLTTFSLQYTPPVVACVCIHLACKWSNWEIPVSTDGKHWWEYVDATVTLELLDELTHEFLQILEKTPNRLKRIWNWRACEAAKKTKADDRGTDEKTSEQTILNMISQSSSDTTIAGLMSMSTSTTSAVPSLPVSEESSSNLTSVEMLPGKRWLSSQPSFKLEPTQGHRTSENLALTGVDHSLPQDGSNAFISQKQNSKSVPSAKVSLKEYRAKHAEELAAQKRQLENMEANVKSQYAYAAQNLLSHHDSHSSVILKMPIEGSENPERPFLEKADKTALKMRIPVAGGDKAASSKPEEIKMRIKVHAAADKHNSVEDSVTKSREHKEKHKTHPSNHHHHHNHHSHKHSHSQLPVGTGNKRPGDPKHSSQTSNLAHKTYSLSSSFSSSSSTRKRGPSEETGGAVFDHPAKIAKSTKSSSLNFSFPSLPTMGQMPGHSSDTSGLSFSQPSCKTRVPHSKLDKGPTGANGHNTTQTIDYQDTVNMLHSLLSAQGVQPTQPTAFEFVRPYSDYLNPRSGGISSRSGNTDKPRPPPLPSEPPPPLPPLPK
CYP2C8, sequence (P10632 whole entry): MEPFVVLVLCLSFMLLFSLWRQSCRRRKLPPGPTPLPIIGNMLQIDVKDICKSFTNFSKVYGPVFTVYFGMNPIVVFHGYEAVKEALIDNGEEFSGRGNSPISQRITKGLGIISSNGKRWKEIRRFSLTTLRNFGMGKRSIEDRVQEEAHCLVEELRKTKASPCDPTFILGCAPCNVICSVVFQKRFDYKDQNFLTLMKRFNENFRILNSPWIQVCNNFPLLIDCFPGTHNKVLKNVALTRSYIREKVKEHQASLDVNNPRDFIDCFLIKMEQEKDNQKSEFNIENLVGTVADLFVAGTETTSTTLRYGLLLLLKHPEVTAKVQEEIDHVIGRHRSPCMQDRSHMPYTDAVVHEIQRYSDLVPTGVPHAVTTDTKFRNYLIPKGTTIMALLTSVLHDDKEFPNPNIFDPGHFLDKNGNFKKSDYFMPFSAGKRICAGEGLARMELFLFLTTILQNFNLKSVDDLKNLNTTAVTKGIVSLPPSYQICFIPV
T4 sequence (P08684 whole entry): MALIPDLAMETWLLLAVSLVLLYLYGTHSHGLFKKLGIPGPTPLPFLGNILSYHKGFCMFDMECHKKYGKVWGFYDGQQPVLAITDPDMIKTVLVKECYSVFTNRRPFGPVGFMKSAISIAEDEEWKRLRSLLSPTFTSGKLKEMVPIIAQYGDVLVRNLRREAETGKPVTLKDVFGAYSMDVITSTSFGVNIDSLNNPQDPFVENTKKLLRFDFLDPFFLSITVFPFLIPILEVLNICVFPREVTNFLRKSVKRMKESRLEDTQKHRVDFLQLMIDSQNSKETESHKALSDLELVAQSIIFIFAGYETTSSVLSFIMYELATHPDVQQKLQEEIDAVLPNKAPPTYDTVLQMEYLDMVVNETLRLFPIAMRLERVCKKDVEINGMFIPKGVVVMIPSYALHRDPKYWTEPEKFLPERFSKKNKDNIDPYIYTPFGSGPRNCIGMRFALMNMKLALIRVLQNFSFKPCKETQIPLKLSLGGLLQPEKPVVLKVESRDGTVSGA
T3 sequence (P10635 whole entry): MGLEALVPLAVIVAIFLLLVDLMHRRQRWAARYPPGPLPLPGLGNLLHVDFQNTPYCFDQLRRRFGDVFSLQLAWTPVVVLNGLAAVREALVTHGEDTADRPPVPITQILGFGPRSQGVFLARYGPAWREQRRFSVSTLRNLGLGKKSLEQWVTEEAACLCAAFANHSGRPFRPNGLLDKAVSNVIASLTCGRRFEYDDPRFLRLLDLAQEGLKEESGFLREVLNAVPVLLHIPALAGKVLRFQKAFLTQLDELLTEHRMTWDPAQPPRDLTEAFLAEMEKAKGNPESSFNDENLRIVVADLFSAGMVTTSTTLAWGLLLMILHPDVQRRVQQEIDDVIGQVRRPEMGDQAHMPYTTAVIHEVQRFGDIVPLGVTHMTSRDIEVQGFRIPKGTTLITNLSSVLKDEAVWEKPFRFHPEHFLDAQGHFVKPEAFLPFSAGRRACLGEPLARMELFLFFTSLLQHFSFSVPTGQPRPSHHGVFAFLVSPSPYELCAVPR
CYP1A, sequence (P05177 2-516 limits assumed): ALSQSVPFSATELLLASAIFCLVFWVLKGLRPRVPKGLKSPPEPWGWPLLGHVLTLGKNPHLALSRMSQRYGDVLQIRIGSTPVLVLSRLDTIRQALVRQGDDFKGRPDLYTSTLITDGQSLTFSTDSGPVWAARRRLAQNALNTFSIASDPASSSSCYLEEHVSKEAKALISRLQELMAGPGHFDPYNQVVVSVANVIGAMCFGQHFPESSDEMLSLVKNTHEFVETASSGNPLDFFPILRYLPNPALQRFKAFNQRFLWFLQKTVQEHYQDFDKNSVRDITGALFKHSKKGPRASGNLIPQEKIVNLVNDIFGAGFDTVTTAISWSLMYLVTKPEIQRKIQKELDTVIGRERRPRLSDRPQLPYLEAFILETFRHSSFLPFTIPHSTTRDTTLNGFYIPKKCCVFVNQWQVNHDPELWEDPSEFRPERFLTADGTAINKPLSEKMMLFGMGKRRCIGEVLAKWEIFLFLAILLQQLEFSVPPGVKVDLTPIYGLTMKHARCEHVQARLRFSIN

CC[C@H](Nc1nc(NCc2ccc(C)nc2)c2ncn(C(C)C)c2n1)[C@@H](C)O [[2], 2R,3S-3-(9-isopropyl-6-((6-methylpyridin-3-yl)methylamino)-9H-purin-2-ylamino)pentan-2-ol]
pIC50 [1, 16]: 6.28 | pIC50 [2]: 5.49 | pIC50 [3]: 5.44 | Fold increase in potency [4]: 0.3 | pIC50 [4]: 4.46

CC[C@@H](Nc1nc(NCc2cccnc2)c2ncn(C(C)C)c2n1)C(C)(C)O [Compound [A1]]
IC50 at 5 min [5]: > 25000 nM | IC50 [6]: 19.9 µM | IC50 [7]: > 25 µM | IC50 [8]: > 25 µM | IC50 [9]: 1.63 µM | half-life at 5 μM [10]: 58.3 min | half-life at 5 μM [11]: > 45 min | half-life at 5 μM [12]: > 45 min | half-life at 5 μM [13]: > 45 min | half-life at 5 μM [14]: 28.3 min

CC[C@H](Nc1nc(NCc2cccc(Cl)c2)c2ncn(C(C)C)c2n1)[C@@H](C)O [[3], 2R,3S-3-(6-(3-Chlorobenzylamino)-9-isopropyl-9H-purin-2-ylamino)pentan-2-ol]
pIC50 [1, 16]: 8.00 | pIC50 [2, 17]: 7.00 | pIC50 [3]: 7.22 | Fold increase in potency [4]: 8.0 | pIC50 [4]: 5.82

CCC(Nc1nc(NCc2ccc(C(F)(F)F)nc2)c2ncn(C(C)C)c2n1)C(O)C(F)(F)F (centres unmarked) [[17], 1,1,1-Trifluoro-3-(9-isopropyl-6-((6-(trifluoromethyl)pyridin-3-yl)methylamino)-9H-2-ylamino)pentan-2-ol]
pIC50 [1, 18]: 6.50 | pIC50 [1, 19]: 6.51 | pIC50 [1, 20]: 6.50 | pIC50 [2, 21]: 6.52 | pIC50 [2, 22]: 6.37 | pIC50 ([2]; Table 4, mean of two runs, read-out: CDK2A Mean): 6.43 | pIC50 [15, 23]: 5.21 | pIC50 [15, 24]: 4.95 | pIC50 [15, 25]: 5.06

CC[C@H](Nc1nc(NCc2cccnc2)c2ncn(C(C)C)c2n1)[C@@H](C)O [[A3]]
IC50 at 5 min [5]: > 25000 nM | IC50 [6]: > 25 µM | IC50 [7]: > 25 µM | IC50 [8]: > 25 µM | IC50 [9]: 1.88 µM | half-life at 5 μM [10]: > 45 min | half-life at 5 μM [11]: > 45 min | half-life at 5 μM [12]: > 45 min | half-life at 5 μM [13]: > 45 min | half-life at 5 μM [14]: 18 min

CC(C)n1cnc2c(NCc3cccnc3)nc(NCC(O)(C(F)(F)F)C(F)(F)F)nc21 [[18], 1,1,1,3,3,3-Hexafluoro-2-((9-isopropyl-6-(pyridine-3-ylmethylamino)-9H-purin-2-ylamino)methyl)propan-2-ol]
pIC50 [1, 18]: 6.47 | pIC50 [1, 19]: 6.55 | pIC50 [1, 20]: 6.51 | pIC50 [2, 21]: 6.15 | pIC50 [2, 22]: 5.92 | pIC50 [15, 23]: 5.23 | pIC50 [15, 24]: 5.17 | pIC50 [15, 25]: 5.20

CC[C@H](Nc1nc(NCc2cccnc2)c2ncn(C(C)C)c2n1)C(C)(C)O [[A2]]
IC50 at 5 min [5]: > 25000 nM | IC50 [6]: > 25 µM | IC50 [7]: > 25 µM | IC50 [8]: > 25 µM | IC50 [9]: 0.48 µM | half-life at 5 μM [10]: > 45 min | half-life at 5 μM [11]: > 45 min | half-life at 5 μM [12]: > 45 min | half-life at 5 μM [13]: > 45 min | half-life at 5 μM [14]: 32.6 min

CC[C@H](Nc1nc(NCc2cccc(F)c2)c2ncn(C(C)C)c2n1)[C@@H](C)O [[4], 2R,3S-3-[6-(3-Fluorobenzylamino)-9-isopropyl-9H-purin-2-ylamino]-pentan-2-ol]
pIC50 [1, 16]: 7.70 | pIC50 [2, 17]: 6.92 | pIC50 [3]: 7.10 | Fold increase in potency [4]: 8.0 | pIC50 [4]: 5.82
